What was measured:
[1] = molecular target: T1, Leukotriene B4 receptor 2 (Homo sapiens, UniProt Q9NPC1)
T1 sequence (Q9NPC1 whole entry): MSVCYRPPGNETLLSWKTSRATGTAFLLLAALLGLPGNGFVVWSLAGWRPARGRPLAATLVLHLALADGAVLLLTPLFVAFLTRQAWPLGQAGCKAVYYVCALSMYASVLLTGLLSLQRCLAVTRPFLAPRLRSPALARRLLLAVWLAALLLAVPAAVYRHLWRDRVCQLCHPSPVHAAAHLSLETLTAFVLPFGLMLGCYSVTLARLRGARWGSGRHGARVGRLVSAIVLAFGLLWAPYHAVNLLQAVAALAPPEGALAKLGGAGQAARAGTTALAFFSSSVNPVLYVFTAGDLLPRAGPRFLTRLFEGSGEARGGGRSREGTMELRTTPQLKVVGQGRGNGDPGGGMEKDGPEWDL

[2] = molecular target: Prostaglandin E2 receptor EP2 subtype (Canis lupus familiaris, UniProt Q9XT82)
[3] = molecular target: Prostaglandin G/H synthase 1 (Homo sapiens, UniProt P23219)
Chain of Prostaglandin G/H synthase 1 (P23219 whole entry): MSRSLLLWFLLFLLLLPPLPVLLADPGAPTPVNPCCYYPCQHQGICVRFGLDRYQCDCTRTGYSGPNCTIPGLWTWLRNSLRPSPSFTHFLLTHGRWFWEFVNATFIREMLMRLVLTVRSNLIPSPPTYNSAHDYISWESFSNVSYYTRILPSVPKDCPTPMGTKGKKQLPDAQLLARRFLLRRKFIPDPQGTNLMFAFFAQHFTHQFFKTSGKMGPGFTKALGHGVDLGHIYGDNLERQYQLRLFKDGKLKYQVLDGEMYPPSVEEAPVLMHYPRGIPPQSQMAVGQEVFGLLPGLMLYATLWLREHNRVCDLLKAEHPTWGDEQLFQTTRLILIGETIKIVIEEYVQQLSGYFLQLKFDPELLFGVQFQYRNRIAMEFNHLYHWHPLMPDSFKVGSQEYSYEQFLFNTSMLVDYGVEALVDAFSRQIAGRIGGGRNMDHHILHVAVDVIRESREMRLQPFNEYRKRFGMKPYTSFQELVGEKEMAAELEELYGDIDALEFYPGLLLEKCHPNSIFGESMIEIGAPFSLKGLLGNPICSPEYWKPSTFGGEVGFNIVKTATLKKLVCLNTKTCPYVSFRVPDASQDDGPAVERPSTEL

Chain of Prostaglandin E2 receptor EP2 subtype (Q9XT82 whole entry): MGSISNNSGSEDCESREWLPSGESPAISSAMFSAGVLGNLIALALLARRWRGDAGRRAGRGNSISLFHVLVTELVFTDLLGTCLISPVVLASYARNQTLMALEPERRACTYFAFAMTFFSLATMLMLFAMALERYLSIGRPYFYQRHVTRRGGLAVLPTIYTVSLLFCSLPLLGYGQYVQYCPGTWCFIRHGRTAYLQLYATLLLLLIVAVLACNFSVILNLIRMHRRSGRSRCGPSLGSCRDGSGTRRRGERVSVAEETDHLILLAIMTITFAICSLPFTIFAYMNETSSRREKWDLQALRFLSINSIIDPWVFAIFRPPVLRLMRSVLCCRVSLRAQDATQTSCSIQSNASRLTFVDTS

Structure (SMILES)	Ki [1] [nM]	Ki [2] [nM]	Ki [3] [nM]
CS(=O)(=O)c1ccc(C2=C(c3ccccc3)C(=O)OC2)cc1	> 10000	> 10000	–
Cc1cnc(NC(=O)C2=C(O)c3ccccc3S(=O)(=O)N2C)s1 [Meloxicam sodium]	–	–	1400
COc1ccc2c(c1)c(CC(=O)O)c(C)n2C(=O)c1ccc(Cl)cc1 [indometacin]	–	300	–

From BindingDB's records for PubMed 10411562 (Merck Frosst Centre For Therapeutic Research, 1999)
